In US10781232B2, “Sugar-dipeptide conjugates as flavor molecules” (NESTEC S.A., priority 2015, dated 2020):

How the values were obtained:
Type in all cases: in vivo, human
[1] = Sensory evaluation of chicken soups with and without the compound; settings: compound added at 2 g/L; chicken base powder 6 g and 1 g monosodium glutamate in 500 mL hot water; 12 panelists
Method: Chicken soups were prepared by dissolving 6 g chicken base powder (detailed recipe shown in Table 3) and 1 g monosodium glutamate in 500 mL hot water. 1-Deoxy-D-fructosyl-N-β-alanyl-L-histidine or alternatively 1-deoxy-D-fructosyl-N-β-alanyl-N-methyl-L-histidine was added at 2 g/L.
The sensory evaluation was carried out by 12 panelists, previously screened for their sensory abilities. The panelists were asked to taste a set of 2 chicken soups, one containing no 1-deoxy-D-fructosyl-N-β-alanyl-L-histidine and one containing 1-deoxy-D-fructosyl-N-β-alanyl-L-histidine (2 g/L). If sensory differences were observed, the panelists were asked to describe them.
The same sensory evaluation was carried out with the chicken soup samples with and without containing 1-deoxy-D-fructosyl-N-β-alanyl-N-methyl-L-histidine at 2 g/L broth.

[2] = Sensory evaluation of tomato soups with and without the compound; settings: compound added at 2 g/L; 6 g tomato base powder in 500 mL hot water
Method: 1-Deoxy-D-fructosyl-N-β-alanyl-L-histidine or alternatively 1-deoxy-D-fructosyl-N-β-alanyl-N-methyl-L-histidine was added at 2 g/L to the soups.

[3] = Taste threshold concentration in model broth, three-alternative test by sensory panel; settings: thick-sour sensation and white-meaty oral impression, value in brackets
Method: The sensory tests were performed in a sensory panel room at 20-25° C. To avoid a retro-nasal aroma or taste impression, nose clips were used. The sensory panel consisted of 8 to 14 trained persons. The panel was trained to evaluate the taste of aqueous solutions (1 mL each) of the following standard taste compounds by using a triangle test: saccharose (50 mmol/L) and L-alanine (15 mmol/L), respectively, for sweet taste; lactic acid (20 mmol/L) for sour taste; NaCl (12 mmol/L) for salty taste; caffeine (1 mmol/L) and quinine hydrochloride (0.05 mmol/L), respectively, for bitter taste; sodium glutamate (8 mmol/L, pH 5.7) for umami taste; and tannin (0.05%) for astringency. The “white meaty” oral sensations was assessed in a model broth solution prepared from monosodium glutamate monohydrate (1.9 g/L), yeast extract (2.1 g/L), maltodextrin (6.375 g/L) and sodium chloride (2.9 g/L) in bottled water (pH 5.9).
The taste threshold concentration of β-alanyl-L-histidine was determined in the model broth using a three-alternative test with two blanks and one sample in ascending concentrations of β-alanyl-L-histidine.
This taste threshold value is considerably lower than the 22′700 μmol/L (5.3 mg/g) threshold level determined for the corresponding β-alanyl-L-histidine under the same experimental model system (see Example 5). […]

Compound	sensory panel conclusion on flavour of chicken soup [1]	sensory panel conclusion on flavour of tomato soup [2]	taste threshold concentration [3]
Cn1cncc1C[C@H](NC(=O)CCNCC(=O)[C@@H](O)[C@H](O)[C@H](O)CO)C(=O)O [1-deoxy-D-fructosyl-N-β-alanyl-N-methyl-L-histidine]	significantly increased the boiled chicken and meaty flavours	increased significantly the savory, spicy notes	–
NCCC(=O)N[C@@H](Cc1c[nH]cn1)C(=O)O [β-alanyl-L-histidine]	–	–	5.3 mg/g
